Source: patent US8668937B2, “Topical nitric oxide systems and methods of use thereof” (Transdermal Biotechnology, Inc., priority 2011, dated 2014)
Entries after “also recorded” stand apart in the source; their conditions may differ.

Test: Nitric oxide gas bubbled through carrier, change in weight noted
Type: physicochemical
Details: 25 °C
Description: This example illustrates one technique for preparing a composition in accordance with one embodiment of the invention. An accurate amount of a carrier (HNC 167-62) (see below) was introduced into a system. The carrier weight used in these experiments was approximately 250 g and the vessel size was 500 ml. The vessel was equipped with a mechanical stirrer, gas inlet, and gas outlet and was previously purged with argon for about an hour. The temperature of the carrier was kept at about 25-30° C. NO gas regulated at 5 psi (1 psi is about 6,900 Pa) and was then introduced at a controlled rate of about 1 bubble/s with continuous stirring. […] After 6 hours, the weight of the carrier had increased by 0.15%, by 12 hours by 0.25%, and by 24 hours by 0.56%. These increases in weight were believed to be significant considering the relative small molecular weight of NO versus the carrier. […] The carrier also can solidify upon cooling if the carrier is initially a solid at lower temperature.
Each carrier was taken in a 500 mL three necked flask equipped with a mechanical stirrer, gas inlet and a gas outlet. The system was purged with argon for one hour at room temperature (25° C.). Then nitric oxide gas was bubbled into the system. Then, nitric oxide gas was bubbled through carrier for stipulated amount of time. The changes in weight and color were noted. The details of individual experiments were as follows.

Structure (SMILES): OCCCO [1,3-Propanediol, 1,3-propanediol]
- % Wt. gain (NO gas bubbled 40 hr): 0.09%
- Wt. Gain g (NO gas bubbled 40 hr): 0.16 g
- weight gain when NO was passed through (in words) (neat, NO gas bubbled 40 hours): only negligible, if any, weight gain; also recorded: failed to gain any significant weight
